From patent US4237140A, “Analgesic mixture of nalbuphine and acetaminophen” (E. I. Du Pont de Nemours and Company, priority 1979, dated 1980)
Counter-ions that a name gives are not always drawn.

Tested on: phenyl-p-benzoquinone induced writhing in mice
Assay: mouse antiphenylquinone writhing test (oral analgesic activity)
Details: for ED50: Mus musculus, po, 5 min; for peak time for analgesia: preliminary experiment, drug alone
Protocol: Male CF1 mice obtained from Charles River Breeding Laboratories, fasted for 16-22 hours, and weighing 18-22 g at the time of testing are used throughout. All mice are dosed orally with acetaminophen and/or nalbuphine (calculated as the hydrochloride salt) dissolved completely in distilled water containing as vehicle 2% by volume of Tween 80®, a pharmacological dispersant manufactured by Fisher Scientific Company and containing 100% polysorbate 80. A dosing volume of 20 ml/kg is used. All doses are coded and the test is performed under a code not known to the observer.
Mice, intubated with various doses of nalbuphine HCl, acetaminophen, combined doses of nalbuphine.HCl and acetaminophen, or vehicle, are injected intraperitoneally with a challenge dose of phenyl-p-benzoquinone.The phenyl-p-benzoquinone is prepared as a 0.1 mg/ml solution in 5% by volume of ethanol in water; the writhing dose is 1.25 mg/kg injected at the rate of 0.25 ml/20 g. For scoring purposes a "writhe" is indicated by whole body stretching or contraction of the abdomen: mice are observed 10 minutes for the presence or absence of writhing beginning 5 minutes after receiving the phenyl-p-benzoquinone dose. Each mouse is used only once, then discarded.
Initially the time of peak activity is determined separately for each drug in the antiphenylquinone writhing test. Then several doses of each drug alone and in precise nalbuphine.HCl/acetaminophen ratios are given orally at or near the time of peak analgesic effects.
All ED50 values are determined numerically by the moving average method of Thompson (W. F. Thompson: Bacteriological Rev. 11, 115-145, 1947) and 95% confidence limits are calculated according to the method of Litchfield and Wilcoxon (J. T. Litchfield, Jr. and F. Wilcoxon: J. Pharm. Exp. Ther. 96, 99-113, 1949).

CC(=O)Nc1ccc(O)cc1 [Acetaminophen, N-(4-hydroxyphenyl)acetamide]
ED50: 119 mg/kg
ED50 AT 5 MIN., Acetaminophen (Table 1, oral, acetaminophen component dose (alone or in combination), 95% confidence limits printed on adjacent line): 151 mg/kg
% MICE BLOCKED (oral, nalbuphine.HCl 0, acetaminophen 29.8 mg/kg): 20%
% MICE BLOCKED (oral, nalbuphine.HCl 0, acetaminophen 59.5 mg/kg): 23%
% MICE BLOCKED (oral, nalbuphine.HCl 0, acetaminophen 238 mg/kg): 55%
peak time for analgesia (oral): 5 min

Oc1ccc2c3c1O[C@H]1[C@@H](O)CC[C@@]4(O)[C@@H](C2)N(CC2CCC2)CC[C@]314 [Nalbuphine . HCl, (-)-17-(cyclobutylmethyl)-4,5α-epoxymorphinan-3,6α, 14-triol]
ED50: 7.6 mg/kg
ED50 AT 5 MIN., Nalbuphine . HCl (Table 1, oral, nalbuphine.HCl component dose (alone or in combination), 95% confidence limits printed on adjacent line): 8.58 mg/kg
% MICE BLOCKED (oral, nalbuphine.HCl 1.9 mg/kg, acetaminophen 0): 10%
% MICE BLOCKED (oral, nalbuphine.HCl 3.8 mg/kg, acetaminophen 0): 23%
% MICE BLOCKED (oral, nalbuphine.HCl 7.6 mg/kg, acetaminophen 0): 50%
% MICE BLOCKED (oral, nalbuphine.HCl 15.2 mg/kg, acetaminophen 0): 63%
% MICE BLOCKED (oral, nalbuphine.HCl 30.4 mg/kg, acetaminophen 0): 90%
peak time for analgesia (oral): 5 min
